Here are results for four molecules from ChEMBL document CHEMBL1201862, “PubChem BioAssay data set” (2004).

Usually EC50 stands for the concentration needed to bring the measured effect to its halfway point.

Experiment [1] can be described thus: Luminescence Cell-Based Dose Response HTS to Identify Activators of 5'UTR Stem-Loop Driven Prion Protein mRNA Translation in H4-C Neuroglioblastoma Cells. [Related pubchem assays: 1829 (Project Summary), 1814 (Primary HTS)]. Format: functional.
In experiment [2] the target is T1, Heat shock factor protein 1 (Mus musculus, UniProt P38532).
T1 sequence (P38532 whole entry): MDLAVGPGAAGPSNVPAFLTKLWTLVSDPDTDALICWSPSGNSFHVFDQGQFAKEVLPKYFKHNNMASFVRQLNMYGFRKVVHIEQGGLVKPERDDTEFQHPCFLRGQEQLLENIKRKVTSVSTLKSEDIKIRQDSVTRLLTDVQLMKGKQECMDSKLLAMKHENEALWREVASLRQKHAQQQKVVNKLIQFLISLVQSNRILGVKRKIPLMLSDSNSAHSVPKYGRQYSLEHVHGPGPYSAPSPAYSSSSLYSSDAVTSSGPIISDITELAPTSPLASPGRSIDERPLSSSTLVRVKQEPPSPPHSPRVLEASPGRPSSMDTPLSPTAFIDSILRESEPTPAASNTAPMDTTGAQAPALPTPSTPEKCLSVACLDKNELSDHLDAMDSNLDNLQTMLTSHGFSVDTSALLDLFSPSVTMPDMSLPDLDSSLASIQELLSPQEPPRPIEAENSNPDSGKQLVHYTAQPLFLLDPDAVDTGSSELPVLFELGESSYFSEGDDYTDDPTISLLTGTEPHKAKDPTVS
The experiment is described as follows: HSF1 potentiators in luciferase reporter cells, confirmation, cell-based, NIH3T3, luminescence, dose retest (AID 435004).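 Also: stress induced by proteasome inhibitor MG132 added 30 min after compound; luciferase reporter driven by HSF1 response element in NIH3T3 cells; actives raise luminescence as potentiators of the MG132 stress response.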 The class given is functional. (In general: A reporter such as luciferase makes a cellular process visible.)

Experiment [3] in a line: A cytotoxicity screen of small molecule inhibitors of the PhoP region in Salmonella typhi identified in the primary screen. [Related pubchem assays: 1850, 1864, 1985 ]. The class given is functional.
Experiment [4] is described as follows: Luminescence Cell-Based Dose Retest to Confirm Activators of 5'UTR Stem-Loop Driven Alpha-Synuclein mRNA Translation in H4 Neuroglioblastoma Cells. [Related pubchem assays (depositor defined):AID1813, AID1829]. Format: functional.
The target of experiment [5] is T2, Sentrin-specific protease 8 (Homo sapiens, UniProt Q96LD8).
T2 sequence (Q96LD8 whole entry): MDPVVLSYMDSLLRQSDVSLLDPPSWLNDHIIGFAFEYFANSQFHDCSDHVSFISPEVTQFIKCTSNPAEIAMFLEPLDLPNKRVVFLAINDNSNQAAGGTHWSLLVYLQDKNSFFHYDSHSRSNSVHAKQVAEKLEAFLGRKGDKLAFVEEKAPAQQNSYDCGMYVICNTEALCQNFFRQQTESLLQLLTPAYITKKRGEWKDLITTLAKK
The class given is functional.

The target of experiment [6] is T2, Sentrin-specific protease 8. Format: functional. The source holds these as a separate data set.
The target in experiment [7] is T3, Bifunctional protein GlmU (Mycobacterium tuberculosis, UniProt P9WMN3).
T3 sequence (P9WMN3 whole entry): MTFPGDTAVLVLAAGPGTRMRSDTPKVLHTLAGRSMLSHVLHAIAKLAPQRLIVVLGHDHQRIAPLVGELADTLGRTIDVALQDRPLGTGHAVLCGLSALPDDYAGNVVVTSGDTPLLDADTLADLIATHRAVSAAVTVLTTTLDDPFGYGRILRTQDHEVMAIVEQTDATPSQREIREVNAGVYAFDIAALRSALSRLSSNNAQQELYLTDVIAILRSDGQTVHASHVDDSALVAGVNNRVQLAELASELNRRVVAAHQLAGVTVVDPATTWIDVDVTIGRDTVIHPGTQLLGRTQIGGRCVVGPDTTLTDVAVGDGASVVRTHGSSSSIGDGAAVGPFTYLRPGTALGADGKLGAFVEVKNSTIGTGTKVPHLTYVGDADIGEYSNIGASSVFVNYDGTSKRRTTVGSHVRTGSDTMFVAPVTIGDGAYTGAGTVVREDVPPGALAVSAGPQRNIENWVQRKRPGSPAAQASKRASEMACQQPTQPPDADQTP
The experiment is described as follows: Inhibitors of Mycobacterial Glucosamine-1-phosphate acetyl transferase (GlmU). Secondary screen. Further details: species or system Mycobacterium tuberculosis H37Rv.

Experiment [8] deals with T4, Mannose-6-phosphate isomerase (Homo sapiens, UniProt P34949).
T4 sequence (P34949 whole entry): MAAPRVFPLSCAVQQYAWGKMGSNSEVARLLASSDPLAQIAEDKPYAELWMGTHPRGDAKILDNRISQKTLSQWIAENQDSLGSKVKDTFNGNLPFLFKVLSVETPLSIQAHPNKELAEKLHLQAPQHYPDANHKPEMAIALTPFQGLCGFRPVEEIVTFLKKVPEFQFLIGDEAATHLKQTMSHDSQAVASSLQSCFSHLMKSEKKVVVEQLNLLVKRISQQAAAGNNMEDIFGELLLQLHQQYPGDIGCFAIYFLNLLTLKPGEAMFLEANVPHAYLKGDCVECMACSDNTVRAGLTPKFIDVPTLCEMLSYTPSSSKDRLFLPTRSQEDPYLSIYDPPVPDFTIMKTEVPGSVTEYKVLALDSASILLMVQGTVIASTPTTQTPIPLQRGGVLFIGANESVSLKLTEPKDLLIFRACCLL
The experiment in a line: inhibitors of human PMI, primary screen, biochemical, fluorescence intensity, coupled assay (AID 1209).

In experiment [9] the test system is Streptococcus sp. 'group A'. The experiment in a line: growth inhibition of control SK(-) GAS strain, dose response, counter-screen for streptokinase expression inhibitor project, luminescence, kanamycin, BacTiterGlo, confirmation (AID 1900). Format: functional, organism-based. To be noted: Streptococcus sp. 'group A'. On the technique in general: The purpose of a counterscreen is to sort out artefacts and off-target activity.

Experiment [10] addresses T5, Streptokinase A (Streptococcus pyogenes serotype M1, UniProt P10520).
T5 sequence (P10520 whole entry): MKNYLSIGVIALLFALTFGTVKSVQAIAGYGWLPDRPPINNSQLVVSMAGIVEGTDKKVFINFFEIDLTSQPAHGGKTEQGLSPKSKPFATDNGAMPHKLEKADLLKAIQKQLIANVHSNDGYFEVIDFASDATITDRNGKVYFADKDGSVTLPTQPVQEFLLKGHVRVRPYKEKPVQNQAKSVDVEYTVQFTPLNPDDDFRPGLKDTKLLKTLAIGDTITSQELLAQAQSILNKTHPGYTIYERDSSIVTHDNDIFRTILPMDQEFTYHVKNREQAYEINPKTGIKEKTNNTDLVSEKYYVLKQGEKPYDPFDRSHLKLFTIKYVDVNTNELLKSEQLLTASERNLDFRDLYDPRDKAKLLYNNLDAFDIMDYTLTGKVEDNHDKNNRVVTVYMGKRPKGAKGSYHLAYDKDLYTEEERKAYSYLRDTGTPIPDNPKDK
The experiment is described as follows: S. pyogenes streptokinase expression inhibitors, potency, dose response, plasminogen activation absorbance, OD405 (AID 1914).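 Also: secreted streptokinase activity via plasminogen activation per viability signal from cell pellet.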 Format: functional, Streptococcus pyogenes M1 GAS.

Experiment [11] addresses Small ubiquitin-related modifier 2 (Homo sapiens, UniProt P61956). The experiment in a line: inhibitors of SUMO2 protein-protein interaction, dose response, selectivity assay for SUMO1 interaction inhibitor project, biochemical, FRET, human SUMO2, uHTS hits (AID 624384). The settings on record: read-out: IC50_Mean. The class given is functional.
Experiment [12] addresses SUMO-activating enzyme (Homo sapiens, UniProt Q9UBT2). The experiment is described as follows: inhibitors of in vitro SUMOylation cascade, primary screen, biochemical, HTRF, uHTS (AID 2006). Format: protein-complex assay. On the technique in general: TR-FRET usually uses a lanthanide donor and a delayed reading to cut background.
Experiment [13] deals with Small ubiquitin-related modifier 1 (Homo sapiens, UniProt P63165). The experiment in a line: inhibitors of SUMO1 partner interactions, dose response, biochemical, FRET (AID 624383). The class given is functional. To be noted: read-out: IC50_Mean.
Chain of Small ubiquitin-related modifier 1 (P63165 whole entry): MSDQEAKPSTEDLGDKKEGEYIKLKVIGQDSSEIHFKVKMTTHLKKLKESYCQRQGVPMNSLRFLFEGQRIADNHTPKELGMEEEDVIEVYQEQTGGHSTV

SMILES strings stand for the structures. The source made the active and inactive calls.

Chain of SUMO-activating enzyme (Q9UBE0 whole entry): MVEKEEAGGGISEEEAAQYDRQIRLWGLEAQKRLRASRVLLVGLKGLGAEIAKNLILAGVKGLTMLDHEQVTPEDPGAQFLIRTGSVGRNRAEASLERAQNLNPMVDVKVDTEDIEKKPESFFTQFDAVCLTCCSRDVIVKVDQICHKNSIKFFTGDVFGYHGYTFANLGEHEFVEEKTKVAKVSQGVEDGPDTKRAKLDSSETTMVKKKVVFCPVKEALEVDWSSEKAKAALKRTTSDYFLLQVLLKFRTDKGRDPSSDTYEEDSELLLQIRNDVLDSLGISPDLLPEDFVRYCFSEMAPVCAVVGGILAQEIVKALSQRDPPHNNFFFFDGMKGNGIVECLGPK
Chain of SUMO-activating enzyme (Q9UBT2 whole entry): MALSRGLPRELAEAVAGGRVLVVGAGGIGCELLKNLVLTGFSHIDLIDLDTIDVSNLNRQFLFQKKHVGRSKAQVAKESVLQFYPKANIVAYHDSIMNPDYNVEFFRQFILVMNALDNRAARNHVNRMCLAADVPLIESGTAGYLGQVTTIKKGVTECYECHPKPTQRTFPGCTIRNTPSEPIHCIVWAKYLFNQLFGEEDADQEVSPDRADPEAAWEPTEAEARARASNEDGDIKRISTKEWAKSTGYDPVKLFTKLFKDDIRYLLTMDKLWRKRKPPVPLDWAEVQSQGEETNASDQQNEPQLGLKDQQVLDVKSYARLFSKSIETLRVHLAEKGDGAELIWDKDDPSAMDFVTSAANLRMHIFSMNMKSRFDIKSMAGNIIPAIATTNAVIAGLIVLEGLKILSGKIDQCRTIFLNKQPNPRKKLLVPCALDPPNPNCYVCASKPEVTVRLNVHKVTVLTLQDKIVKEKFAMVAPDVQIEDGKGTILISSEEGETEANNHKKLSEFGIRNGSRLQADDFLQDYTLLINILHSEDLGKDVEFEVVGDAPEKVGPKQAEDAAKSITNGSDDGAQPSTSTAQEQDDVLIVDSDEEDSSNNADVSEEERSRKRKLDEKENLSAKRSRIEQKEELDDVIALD
Chain of Small ubiquitin-related modifier 2 (P61956 whole entry): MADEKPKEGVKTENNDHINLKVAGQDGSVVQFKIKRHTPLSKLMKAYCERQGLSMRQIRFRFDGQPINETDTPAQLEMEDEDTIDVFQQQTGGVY

For the molecule `c1ccc2c(Nc3nnc(-c4ccncc4)s3)cccc2c1`, the EC50 is 40 µM (active) in experiment [1], 42.1 µM (active) in experiment [2], > 50 µM (active) in experiment [3] and 2.04 µM (active) in experiment [4].

Turning to `COc1cc(C(=O)c2nccc3cc(OC)c(OC)cc23)c([N+](=O)[O-])cc1OC`, the IC50 was 0.535 µM (active) in experiment [5] and 14.8 µM (active) in experiment [6].

Take `N=C1S/C(=C\c2ccc(-c3ccccc3C(=O)O)o2)C(=O)N1c1ccc2c(c1)OCO2`: the IC50 in experiment [7] was 153 µM (active); in [8], 11.1 µM (active).

Regarding `N#Cc1c(O)nc(SCC(=O)N2c3ccccc3Sc3ccccc32)nc1-c1ccccc1`, the values for the half-maximal effective concentration (EC50) in [9] and in experiment [10] were 5.6 µM (active) and > 150 µM (not active), respectively. Also, the IC50 in [11] was 23.1 µM (inactive); in experiment [12] it was 14.3 µM (active); in experiment [13] it was 19.8 µM (active).
